Measured values taken from PubChem BioAssay AID248 (DTP/NCI, 2004).
Values joined by “and” are separate entries in the source; they are usually repeats but may differ in a detail not shown here. Equal entries are not always repeated. Inconclusive results and toxic doses are left out. Cut-off read from the data, not from the text of the source: active = T/C of 150% or more; inactive = T/C below 125%.

System: L1210 leukemia ip in BDF1 mice, survival T/C
Experiment: NCI In Vivo Anticancer Drug Screen. Data for tumor model L1210 Leukemia (intraperitoneal) in B6D2F1 (BDF1) mice
Details: endpoint: mean survival time, higher = longer survival
Method in brief: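 Value reflects the ratio of survival in compound-treated mice to survival in vehicle-treated controls, with both groups carrying the same transplanted tumor.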

[1] = dose: 100.0 mg/kg/injection, schedule: Q01DX009 (ip), vehicle: Klucel (hydroxypropylcellulose) (HPC)
[2] = dose: 100.0 mg/kg/injection, schedule: Q04DX003 (ip), vehicle: Klucel (hydroxypropylcellulose) (HPC)
[3] = dose: 200.0 mg/kg/injection, schedule: Q01DX009 (ip), vehicle: Klucel (hydroxypropylcellulose) (HPC)
[4] = dose: 200.0 mg/kg/injection, schedule: Q04DX003 (ip), vehicle: Klucel (hydroxypropylcellulose) (HPC)
[5] = dose: 400.0 mg/kg/injection, schedule: Q01DX009 (ip), vehicle: Klucel (hydroxypropylcellulose) (HPC)
[6] = dose: 400.0 mg/kg/injection, schedule: Q04DX003 (ip), vehicle: Klucel (hydroxypropylcellulose) (HPC)
[7] = dose: 50.0 mg/kg/injection, schedule: Q01DX001 (ip), vehicle: saline
[8] = dose: 100.0 mg/kg/injection, schedule: Q01DX001 (ip), vehicle: saline
[9] = dose: 200.0 mg/kg/injection, schedule: Q01DX001 (ip), vehicle: saline
[10] = dose: 400.0 mg/kg/injection, schedule: Q01DX001 (ip), vehicle: saline
[11] = dose: 100.0 mg/kg/injection, schedule: Q04DX003 (ip), vehicle: saline
[12] = dose: 200.0 mg/kg/injection, schedule: Q04DX003 (ip), vehicle: saline
[13] = dose: 400.0 mg/kg/injection, schedule: Q04DX003 (ip), vehicle: saline
[14] = dose: 100.0 mg/kg/injection, schedule: Q01DX009 (ip), vehicle: saline
[15] = dose: 200.0 mg/kg/injection, schedule: Q01DX009 (ip), vehicle: saline
[16] = dose: 50.0 mg/kg/injection, schedule: Q01DX009 (ip), vehicle: saline
[17] = dose: 100.0 mg/kg/injection, schedule: Q01DX009 (ip), vehicle: saline with Tween-80
[18] = dose: 200.0 mg/kg/injection, schedule: Q01DX009 (ip), vehicle: saline with Tween-80
[19] = dose: 400.0 mg/kg/injection, schedule: Q01DX009 (ip), vehicle: saline with Tween-80

Measured: T/C

COc1ccc(CCC(C(=O)O)c2ccc(OC)c(OC)c2)cc1OC (stereo not drawn)
inactive: dose: 45.0 mg/kg/injection, schedule: Q01DX009 (ip), vehicle: Klucel (hydroxypropylcellulose) (HPC) 98 % of control and 100 % of control | dose: 50.0 mg/kg/injection, schedule: Q04DX003 (ip), vehicle: Klucel (hydroxypropylcellulose) (HPC) 96 % of control | dose: 65.0 mg/kg/injection, schedule: Q01DX009 (ip), vehicle: Klucel (hydroxypropylcellulose) (HPC) 93 % of control and 100 % of control | [1] 94 % of control and 104 % of control | [2] 103 % of control | dose: 150.0 mg/kg/injection, schedule: Q01DX009 (ip), vehicle: Klucel (hydroxypropylcellulose) (HPC) 93 % of control and 102 % of control | [3] 106 % of control | [4] 93 % of control and 96 % of control | [5] 101 % of control | [6] 98 % of control

COc1ccc(C(=O)/C=C/c2ccccc2O)cc1
inactive: dose: 75.0 mg/kg/injection, schedule: Q04DX003 (ip), vehicle: saline 104 % of control | dose: 150.0 mg/kg/injection, schedule: Q04DX003 (ip), vehicle: saline 101 % of control | dose: 300.0 mg/kg/injection, schedule: Q04DX003 (ip), vehicle: saline 96 % of control

Cc1cc(N)c(C(=O)O)cc1C
inactive: [7] 104 % of control | [8] 107 % of control | [9] 104 % of control | [10] 104 % of control

Cc1cc(C)c(/C=N/O)c(C)c1
inactive: dose: 50.0 mg/kg/injection, schedule: Q01DX009 (ip), vehicle: acetone 93 % of control | dose: 100.0 mg/kg/injection, schedule: Q01DX009 (ip), vehicle: acetone 87 % of control | [11] 102 % of control | [12] 97 % of control | [13] 100 % of control

O=[N+]([O-])c1cccc2c(Br)cccc12
inactive: [14] 106 % of control | [11] 103 % of control | [15] 95 % of control | [12] 100 % of control | dose: 400.0 mg/kg/injection, schedule: Q01DX009 (ip), vehicle: saline 95 % of control | [13] 106 % of control

COc1cccc2c1CCc1cc3c(nc1-2)-c1cccc(OC)c1CC3
inactive: [2] 103 % of control | [4] 100 % of control | [6] 101 % of control

O=C(O)CCC(=O)c1ccc(C2CCCC2)c2ccccc12
inactive: dose: 100.0 mg/kg/injection, schedule: Q01DX001 (ip), vehicle: carboxymethylcellulose (CMC) 91 % of control | dose: 200.0 mg/kg/injection, schedule: Q01DX001 (ip), vehicle: carboxymethylcellulose (CMC) 93 % of control | dose: 400.0 mg/kg/injection, schedule: Q01DX001 (ip), vehicle: carboxymethylcellulose (CMC) 89 % of control

O=C1C=C/C(=N/c2ccc(O)o2)c2ccccc21
inactive: dose: 150.0 mg/kg/injection, schedule: Q01DX001 (ip), vehicle: saline 100 % of control

CCCC(=O)c1c(C)cc(C)cc1C
inactive: [1] 97 % of control | [3] 108 % of control | [5] 97 % of control

O=C(COc1ccc([N+](=O)[O-])cc1Cl)Nc1cccc(S(=O)(=O)F)c1
inactive: [2] 98 % of control | [4] 106 % of control | [6] 91 % of control

CC(=O)Nc1ncnn1C(C)=O
inactive: [16] 97 % of control | [14] 96 % of control | [11] 98 % of control | [15] 97 % of control | [12] 95 % of control

CCOC(=O)CCCN(c1[nH]c(C)c(C)c1C#N)S(=O)(=O)c1ccc(C)cc1
inactive: dose: 50.0 mg/kg/injection, schedule: Q01DX009 (ip), vehicle: saline with Tween-80 93 % of control | dose: 50.0 mg/kg/injection, schedule: Q04DX003 (ip), vehicle: saline with Tween-80 93 % of control | [17] 96 % of control | dose: 100.0 mg/kg/injection, schedule: Q04DX003 (ip), vehicle: saline with Tween-80 90 % of control | [18] 90 % of control | dose: 200.0 mg/kg/injection, schedule: Q04DX003 (ip), vehicle: saline with Tween-80 101 % of control | [19] 100 % of control | dose: 400.0 mg/kg/injection, schedule: Q04DX003 (ip), vehicle: saline with Tween-80 95 % of control

O=C1OC(c2ccccc2)(c2ccccc2)Cc2ccccc21
inactive: [17] 97 % of control | [2] 93 % of control | [18] 106 % of control | [19] 95 % of control | [6] 86 % of control

Nc1nc(N)c(-c2ccc(Cl)c(Cl)c2)c(CCc2ccc(S(=O)(=O)F)cc2)n1
inactive: [1] 112 % of control | [3] 98 % of control

NC(=O)OCc1c(O)c2c(c(O)c1COC(N)=O)C(=O)C=CC2=O
inactive: dose: 6.25 mg/kg/injection, schedule: Q01DX009 (ip), vehicle: water 94 % of control | dose: 12.5 mg/kg/injection, schedule: Q01DX009 (ip), vehicle: water 92 % of control | dose: 25.0 mg/kg/injection, schedule: Q01DX009 (ip), vehicle: water 99 % of control | dose: 50.0 mg/kg/injection, schedule: Q01DX009 (ip), vehicle: water 90 % of control | dose: 100.0 mg/kg/injection, schedule: Q01DX009 (ip), vehicle: water 95 % of control

CC1OC(=O)N(CCc2ccncc2)C1=O (stereo not drawn)
inactive: dose: 100.0 mg/kg/injection, schedule: Q04DX002 (ip), vehicle: saline 93 % of control | dose: 200.0 mg/kg/injection, schedule: Q04DX002 (ip), vehicle: saline 93 % of control | dose: 400.0 mg/kg/injection, schedule: Q04DX002 (ip), vehicle: saline 97 % of control

O=[N+]([O-])c1cccc(CS(=O)(=O)c2ccccc2)c1-c1c(CS(=O)(=O)c2ccccc2)cccc1[N+](=O)[O-]
inactive: dose: 100.0 mg/kg/injection, schedule: Q04DX003 (ip), vehicle: saline sonified 101 % of control | dose: 200.0 mg/kg/injection, schedule: Q04DX003 (ip), vehicle: saline sonified 95 % of control | dose: 400.0 mg/kg/injection, schedule: Q04DX003 (ip), vehicle: saline sonified 94 % of control

CS(=O)(=O)CCS(=O)(=O)c1cccs1
inactive: dose: 50.0 mg/kg/injection, schedule: Q01DX009 (ip), vehicle: Klucel (hydroxypropylcellulose) (HPC) 103 % of control | [1] 102 % of control | [2] 110 % of control | [4] 112 % of control | [6] 111 % of control

[Co].[NH-]CC[N-]CCO.[NH-]CC[N-]CCO
inactive: dose: 25.0 mg/kg/injection, schedule: Q01DX009 (ip), vehicle: saline 100 % of control | [16] 102 % of control | dose: 50.0 mg/kg/injection, schedule: Q04DX003 (ip), vehicle: saline 108 % of control | [11] 105 % of control

[Cl][Rh][Cl].[NH-]c1nccs1.[NH-]c1nccs1.[NH-]c1nccs1.[NH-]c1nccs1
inactive: dose: 3.13 mg/kg/injection, schedule: Q04DX003 (ip), vehicle: distilled water + Tween-80 103 % of control | dose: 6.25 mg/kg/injection, schedule: Q04DX003 (ip), vehicle: distilled water + Tween-80 96 % of control | dose: 12.5 mg/kg/injection, schedule: Q04DX003 (ip), vehicle: distilled water + Tween-80 97 % of control | dose: 25.0 mg/kg/injection, schedule: Q04DX003 (ip), vehicle: distilled water + Tween-80 96 % of control | dose: 50.0 mg/kg/injection, schedule: Q04DX003 (ip), vehicle: distilled water + Tween-80 103 % of control | dose: 100.0 mg/kg/injection, schedule: Q04DX003 (ip), vehicle: distilled water + Tween-80 102 % of control | dose: 200.0 mg/kg/injection, schedule: Q04DX003 (ip), vehicle: distilled water + Tween-80 103 % of control

Nc1cc(Nc2ccccc2)nc(=O)[nH]1
inactive: dose: 100.0 mg/kg/injection, schedule: Q01DX001 (ip), vehicle: Klucel (hydroxypropylcellulose) (HPC) 94 % of control | dose: 200.0 mg/kg/injection, schedule: Q01DX001 (ip), vehicle: Klucel (hydroxypropylcellulose) (HPC) 97 % of control

CCCCCOc1ccc(C(=O)CC(=O)OCC)cc1
inactive: [1] 98 % of control | [2] 93 % of control | [3] 104 % of control | [4] 95 % of control | [5] 93 % of control | [6] 93 % of control

CCOC(=O)CCCCC(N)=O
inactive: [8] 104 % of control | [9] 102 % of control | [10] 101 % of control

Nc1cncnc1
inactive: [7] 112 % of control | [8] 107 % of control | [9] 98 % of control | [10] 102 % of control
